This note sets out measurements from patent publication US9757375B2, “Compounds that inhibit human DNA ligases and methods of treating cancer” (University of Maryland, Baltimore, priority 2007, dated 2017).

Read-outs that look alike come from different tables or passages of the source. Marks after values point to notes of the source that are not given here. A value given as a limit tells only on which side of the number the result lay.

For one test, the target named is T1, hLigI (Homo sapiens, UniProt P18858).
T1 construct: made in house
Kind of test: High-throughput fluorescence-based DNA joining (ligation) assay. It is filed as biochemical. Particulars: for inhibition at 100 µM: read-out: % of inhibition @ 100 μM (Helen's data) hLigI. As to the method: Candidate ligase inhibitors identified by CADD were assayed for their ability to inhibit hLigI and T4 DNA ligase using a high-throughput, fluorescence energy transfer-based DNA joining assay (22). Duplicate reactions (30 μL) containing 10 pmol of nicked DNA substrate and either 0.25 pmol of hLigI or 10 units of T4 DNA ligase were incubated in the presence or absence of 100 μmol/L of the putative inhibitor. DNA binding by the candidate DNA ligase inhibitors was measured by displacement of ethidium bromide from DNA as previously described (30).
(§1) The method for screening compounds comprises testing the compound for the ability to inhibit human DNA ligases I, III and IV with a high throughput fluorescence-based ligation assay. In this assay, phosphodiester bond formation covalently links together two oligonucleotides, one of which is a fluorescent donor AF488 that is 11 nucleotides from the 3′ terminus and the other contains a fluorescence acceptor and quencher, BHQ1 that is 15 nucleotides from the 5′ terminus. When these oligonucleotides are present in separate duplexes and in the same nicked or intact duplex, there is no significant quenching of fluorescence because the donor and acceptor are too far apart. As single-strands neither the AF488 oligonucleotide nor the BHQ1 oligonucleotides have significant secondary structure. However, when these oligonucleotides are ligated together, the resultant single strand forms a stable hairpin structure, in which the AF488 and BHQ1 groups are very close together, resulting in efficient intra-molecular quenching of fluorescence. Thus, in the DNA joining assay, the DNA substrate is denatured after incubation with the DNA ligase and then renatured in the presence of a 20-fold excess of an oligonucleotide that is identical to the ligated strand containing the fluorescent door and acceptor except that it lacks these modifications. Using this assay, DNA joining, which results in reduced fluorescence at 518 nm, can be measured rapidly, quantitatively and with high-throughput using a fluorescence plate reader.
(§2) Applicants developed a novel high throughput fluorescence-based ligation assay by modifying the sequence of the oligos to optimize hairpin formation by the single strand ligated product of the high throughput fluorescence-based ligation assay of Chen et al (22). […] Compound stock solutions, which were 10 mM in 0.5% DMSO, were diluted in 0.5% DMSO. Human DNA ligases I and III were assayed with a nicked DNA substrate whereas as the substrate for human DNA ligase IV was two oligonucleotide duplexes with short complementary single strand ends.

The next test deals with T2, human DNA ligase III (Homo sapiens, UniProt P49916).
T2 sequence (P49916 1-862 isoform P49916-4): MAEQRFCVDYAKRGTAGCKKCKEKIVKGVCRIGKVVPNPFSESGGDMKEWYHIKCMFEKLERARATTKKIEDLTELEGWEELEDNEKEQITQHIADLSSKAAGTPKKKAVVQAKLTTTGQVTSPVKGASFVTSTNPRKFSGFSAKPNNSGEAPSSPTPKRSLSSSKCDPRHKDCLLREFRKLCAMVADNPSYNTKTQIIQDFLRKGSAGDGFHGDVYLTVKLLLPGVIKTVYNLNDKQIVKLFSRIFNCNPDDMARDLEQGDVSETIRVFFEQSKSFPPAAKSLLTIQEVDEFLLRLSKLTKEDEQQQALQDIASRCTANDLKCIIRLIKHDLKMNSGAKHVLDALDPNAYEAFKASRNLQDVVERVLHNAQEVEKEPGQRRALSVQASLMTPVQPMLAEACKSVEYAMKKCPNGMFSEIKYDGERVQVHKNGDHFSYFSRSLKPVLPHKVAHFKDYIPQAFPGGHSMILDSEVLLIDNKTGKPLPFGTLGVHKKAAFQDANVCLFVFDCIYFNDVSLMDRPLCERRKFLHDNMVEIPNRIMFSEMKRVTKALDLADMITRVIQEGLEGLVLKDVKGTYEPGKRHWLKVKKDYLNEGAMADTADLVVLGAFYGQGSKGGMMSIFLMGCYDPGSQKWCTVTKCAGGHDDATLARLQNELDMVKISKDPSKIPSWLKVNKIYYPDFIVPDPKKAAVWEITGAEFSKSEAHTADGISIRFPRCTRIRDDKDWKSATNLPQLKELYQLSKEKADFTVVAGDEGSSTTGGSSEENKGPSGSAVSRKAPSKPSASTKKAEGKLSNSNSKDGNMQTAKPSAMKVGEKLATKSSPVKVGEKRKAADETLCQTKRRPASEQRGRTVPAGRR
The description is as above. It is filed as biochemical. Particulars: for inhibition at 100 µM: read-out: % of inhibition @ 100 μM (Helen's data) hLigIII.
Text: as §1, §2

In the next test the target is human DNA ligase IV (Homo sapiens, UniProt P49917). The description is as above. The test is classed as biochemical. Particulars: 100 μM; for inhibition at 100 µM: read-out: % of inhibition @ 100 μM (Helen's data) hLigIV.
Text: as §1, §2

In test [1] the test system is MCF10A cells. Kind of test: Screen for potentiation of DNA damaging agents (MMS, camptothecin, cis-platinum, 3 aminobenzamide, ionizing radiation). Particulars: compound alone vs combination with MMS (100 μM); 1 = no sensitization. The test is classed as cell-based, human. The text has this: The 192 human DNA ligase inhibitors were screened in parallel for effects on proliferation and the ability to potentiate the effects of several DNA damaging agents using two cell human lines, a colon cancer line HCT116 and a normal breast epithelial cell line MCF10A using a Biomek FX Laboratory Automation Workstation as described (23). The DNA damaging agents used, methyl methanesulfonate (MMS), camptothecin, cis-platinum, 3 aminobenzamide and ionizing radiation, are representatives of classes of agents used to treat cancer. Briefly, HCT116 and MCF10A cells were plated in 96 well plates such that the cultures were about 80% confluent after 5 days incubation. Compounds were added to the cultures at either 15 μM or 50 μM 1 day after plating. After incubation for 3 days, cell lysed in a solution containing 1.2% Igepal CA-630 and SYBR green that stains DNA (1:1000, Molecular Probes, Eugene, Oreg.). Subsequently, fluorescence was measured per well. The studies with DNA damaging agents were performed as follows. […] Cultures were incubated for 3 days and then treated as above.

The test system of test [2] is MCF10A cells. Nature of the test: MTT cell growth assay. The settings on record: for IC50: Homo sapiens, MCF-10A. It is filed as cell-based, human. As to the method: (§3) The activity of hits from the initial screen was further validated using the MTT assay. Briefly, MCF10A and HCT116 cells were seeded in 96 well plates at 300 and 1200 cells per well, respectively, and allowed to adhere overnight. The following day, serial dilutions of compounds in media were added to the cells in a final volume 200 μl. After incubation for 5 days, MTT reagent (3-(4,5-dimthylthiazol-2-yl)-2,5-diphenyltatrazolium) was added and incubation was continued for 4 h. Formazan crystals generated by reduction of the MTT reagent in mitochondria were solubilized with isopropanol prior to the measurement of absorbance at 560 nm wavelength in a plate reader.
To extend the results of the […] cell culture screening assay, a subset of compounds were tested in larger cultures. Different concentrations of Compounds 67 and 151 were added to asynchronous subconfluent populations of HCT116 and MCF10A cells. Asynchronous subconfluent populations of HCT116 and MCF10A cells were pre-treated with different concentrations of compound 64 prior to the addition of 3 aminobenzamide (2 mM) MMS (100 μM) or cis-platinum (1 μM). After incubation for 5 days, cell growth was measured by the MTT assay (16).
(Formazan colour is commonly taken as a measure of viable cells.)

The next test deals with HCT116 cells. Kind of test: MTT cell growth assay. It is filed as cell-based, human. Particulars: Homo sapiens, HCT-116. As to the method: as §3
After incubation for 5 days, cell growth was measured by the MTT assay (16).

Test [3] has as its system MCF10A cells. Nature of the test: Cell proliferation screen (SYBR Green, Biomek FX). Particulars: 50 μM; percentage of values obtained with DMSO alone. It is filed as cell-based, human. As to the method:
The ability of the compounds identified by CADD to inhibit proliferation of normal mammary epithelial MCF10A cells and colon carcinoma HCT116 cells was determined using a Biomek FX Laboratory Automation Workstation (Beckman Coulter, Inc., Fullerton, Calif.). On day 0, 20 μl of complete medium containing the appropriate number of cells (150-300) was plated per well of a 384-well tissue plate (Fisher Scientific, Hampton, N.H.) and incubated overnight at 37° C. with 5% CO2 and 90% humidity. Next day, day 1, compounds were prepared by serial dilution with complete medium to yield the concentration 100 μM, and 20 μl was added to each well containing 20 μl of medium and cells yielding the final concentration 50 μM in 40 μl volume. Plates were incubated for additional 3 days (days-2-5) until control cells (0.5% DMSO) reached ˜70-80% confluency. On day 6, 40 μl of lysis/detection solution containing 1.2% Igepal CA-630 (Sigma) and a 1:1000 dilution of SYBR Green I nucleic acid stain (Molecular Probes, Eugene, Oreg.) was added to each well. Following an overnight incubation at 37° C., total fluorescence was measured using a Fluorostar Galaxy plate reader with a 485 nm excitation filter and 520 nm emission filter set (BMG Labtech, Inc., Durham, N.C.). Data was exported to a custom program that determined growth inhibition by dividing each individual fluorescence value by the average of fluorescence values obtained with cells treated with DMSO alone.
The 192 human DNA ligase inhibitors were screened in parallel for effects on proliferation and the ability to potentiate the effects of several DNA damaging agents using two cell human lines, a colon cancer line HCT116 and a normal breast epithelial cell line MCF10A using a Biomek FX Laboratory Automation Workstation as described (23). The DNA damaging agents used, methyl methanesulfonate (MMS), camptothecin, cis-platinum, 3 aminobenzamide and ionizing radiation, are representatives of classes of agents used to treat cancer. Briefly, HCT116 and MCF10A cells were plated in 96 well plates such that the cultures were about 80% confluent after 5 days incubation. Compounds were added to the cultures at either 15 μM or 50 μM 1 day after plating. After incubation for 3 days, cell lysed in a solution containing 1.2% Igepal CA-630 and SYBR green that stains DNA (1:1000, Molecular Probes, Eugene, Oreg.). Subsequently, fluorescence was measured per well. The studies with DNA damaging agents were performed as follows. […] For ionizing radiation, cells were pre-incubated with the compounds at 50 μM for 1 hour prior to exposure to 2 gray of ionizing radiation. Cultures were incubated for 3 days and then treated as above.

Setting [4] is: sections 'high concentrations (~50 μM)' and 'active in vitro that decreased cell growth', same figures given in μM elsewhere in Table 6, read-out: IC50 MCF10A (head without unit).

human DNA ligase IV, sequence (P49917 whole entry): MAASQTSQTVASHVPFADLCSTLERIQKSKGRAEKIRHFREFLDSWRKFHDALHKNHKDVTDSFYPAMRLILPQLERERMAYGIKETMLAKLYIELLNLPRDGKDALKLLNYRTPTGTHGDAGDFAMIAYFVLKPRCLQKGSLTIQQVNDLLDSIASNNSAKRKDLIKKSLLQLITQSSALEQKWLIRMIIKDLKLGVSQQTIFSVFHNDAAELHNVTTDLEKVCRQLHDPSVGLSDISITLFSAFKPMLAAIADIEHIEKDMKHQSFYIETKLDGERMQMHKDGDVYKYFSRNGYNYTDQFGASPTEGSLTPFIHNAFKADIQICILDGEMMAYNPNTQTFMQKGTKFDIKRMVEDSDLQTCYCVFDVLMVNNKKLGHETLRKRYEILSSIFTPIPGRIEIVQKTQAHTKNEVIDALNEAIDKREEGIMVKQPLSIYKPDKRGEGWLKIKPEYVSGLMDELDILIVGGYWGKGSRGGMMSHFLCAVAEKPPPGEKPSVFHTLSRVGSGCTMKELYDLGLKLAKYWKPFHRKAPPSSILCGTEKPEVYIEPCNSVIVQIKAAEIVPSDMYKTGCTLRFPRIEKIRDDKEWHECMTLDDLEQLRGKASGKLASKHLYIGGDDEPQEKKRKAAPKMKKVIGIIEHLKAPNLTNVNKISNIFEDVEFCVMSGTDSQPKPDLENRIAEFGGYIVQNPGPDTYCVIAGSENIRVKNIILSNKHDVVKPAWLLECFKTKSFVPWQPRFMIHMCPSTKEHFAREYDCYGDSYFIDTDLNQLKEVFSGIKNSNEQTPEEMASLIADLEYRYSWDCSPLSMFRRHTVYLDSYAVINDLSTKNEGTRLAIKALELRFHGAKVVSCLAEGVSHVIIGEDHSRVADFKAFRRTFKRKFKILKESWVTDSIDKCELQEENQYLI
human DNA ligase IV, sequence (Q13426 whole entry partner): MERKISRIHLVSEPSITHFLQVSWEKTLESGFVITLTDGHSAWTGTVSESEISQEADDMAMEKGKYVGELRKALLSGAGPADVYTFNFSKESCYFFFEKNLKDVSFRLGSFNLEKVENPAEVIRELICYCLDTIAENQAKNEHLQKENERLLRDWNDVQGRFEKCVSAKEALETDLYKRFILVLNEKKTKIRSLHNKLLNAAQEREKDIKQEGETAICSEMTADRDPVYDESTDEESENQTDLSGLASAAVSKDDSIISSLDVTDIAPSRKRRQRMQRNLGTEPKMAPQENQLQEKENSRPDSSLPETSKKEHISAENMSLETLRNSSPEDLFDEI
T1 sequence (P18858 whole entry): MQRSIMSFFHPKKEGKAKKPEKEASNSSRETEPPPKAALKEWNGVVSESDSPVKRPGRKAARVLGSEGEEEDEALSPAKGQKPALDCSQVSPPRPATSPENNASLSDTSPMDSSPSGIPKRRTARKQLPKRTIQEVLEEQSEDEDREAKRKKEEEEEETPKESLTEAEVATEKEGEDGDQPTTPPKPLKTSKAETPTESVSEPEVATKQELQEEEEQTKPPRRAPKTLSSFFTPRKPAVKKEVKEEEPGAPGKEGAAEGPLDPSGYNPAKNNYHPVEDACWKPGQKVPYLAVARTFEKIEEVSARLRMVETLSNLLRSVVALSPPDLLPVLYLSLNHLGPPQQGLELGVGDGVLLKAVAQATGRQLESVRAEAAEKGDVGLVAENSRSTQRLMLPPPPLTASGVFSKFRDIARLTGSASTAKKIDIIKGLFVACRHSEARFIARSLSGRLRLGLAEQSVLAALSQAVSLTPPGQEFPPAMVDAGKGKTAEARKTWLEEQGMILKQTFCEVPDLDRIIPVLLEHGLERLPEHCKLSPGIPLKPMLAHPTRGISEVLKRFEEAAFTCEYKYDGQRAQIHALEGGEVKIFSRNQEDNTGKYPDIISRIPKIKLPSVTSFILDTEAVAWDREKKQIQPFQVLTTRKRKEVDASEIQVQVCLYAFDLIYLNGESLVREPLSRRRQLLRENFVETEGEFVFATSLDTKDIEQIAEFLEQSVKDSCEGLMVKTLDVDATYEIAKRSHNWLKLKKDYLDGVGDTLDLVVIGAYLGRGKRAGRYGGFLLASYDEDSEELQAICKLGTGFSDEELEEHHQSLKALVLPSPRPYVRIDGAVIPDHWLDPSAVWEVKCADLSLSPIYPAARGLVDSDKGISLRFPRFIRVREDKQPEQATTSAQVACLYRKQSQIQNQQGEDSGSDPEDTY

In the case of `C=CCN1C(=O)/C(=C\c2ccccc2C(=O)O)SC1=S` [Compound 159], the inhibition at 100 µM on hLigI (100 μM), on human DNA ligase III and on human DNA ligase IV was below 20% each time. Further, the “MMS: Ratios of IC50 MCF10A” value in the test with MCF10A cells [1] is reported as “Ni”. Moreover, the IC50 – broadly, the point on the concentration scale where inhibition reaches its midpoint – was above 50 µM in the test with MCF10A cells [2] (setting [4]); 50 µM in the test with HCT116 cells (cell growth, compound alone, read-out: IC50 (μM) HCT116); at least 50 µM in the test with HCT116 cells (sections 'high concentrations (~50 μM)' and 'active in vitro that decreased cell growth', same figures given in μM elsewhere in Table 6, read-out: IC50 HCT116 (head without unit)).

As to `CC(C(=O)Nc1cccc(C(=O)O)c1)N(C)S(=O)(=O)c1ccccc1` (stereo not drawn) [Compound 199], on hLigI (100 μM), the “% of inhibition @ 100 μM (Helen's data) hLigI” value is “NI (NI- no inhibition)”. Besides, the “% of inhibition @ 100 μM (Helen's data) hLigIII” value at human DNA ligase III (100 μM) is “NI (NI- no inhibition)”. Also, at human DNA ligase IV, the “% of inhibition @ 100 μM (Helen's data) hLigIV” value is listed as “NI (NI- no inhibition)”. Further, in the test with MCF10A cells [2] (50 μM, numbers printed under MCF10A in r92-r106: 79, 124, 130, 193, 197, 198, 199 (30%), 214, 221), the “inhibition of cell proliferation of MCF10A at 50 μM (MTT)” value is 199^t (30%).

As for `O=C1N/C(=N\c2ccccc2)S/C1=C/c1ccc(-c2cccc(C(=O)O)c2)o1` [Compound 202], on hLigI (in vitro screen, 100 μmol/L, the 15 hLigI inhibitors inhibited by >50%), the “inhibition of hLigI (DNA ligase I), in words” value is “inhibited hLigI”. Besides, the “Growth_Inh % (50 μM) MCF10A” value in the test with MCF10A cells [3] is recorded as 50%.

`O=c1[nH]cc(/C=N/Nc2ncnc3[nH]cnc23)c(=O)[nH]1` [Compound 208]: the inhibition – broadly, the share of the control response that was lost under treatment – at 100 µM on hLigI (100 μM) is 21%; at human DNA ligase III, 24%; on human DNA ligase IV it was below 20%. For the same compound, the IC50 in the test on MCF10A cells [2] (cell growth, compound alone, read-out: IC50 (μM) MCF10A) is 40 µM; with MCF10A cells [2] (setting [4]), 40 µM.
